Reference: PubChem BioAssay AID248 (DTP/NCI, 2004)
Several values for one entry are separate records, joined by “and”; a condition that tells them apart may be missing. Identical values can stand only once. Toxic doses and inconclusive results are not listed. Cut-off read from the data, not from the text of the source: active = T/C of 150% or more; inactive = T/C below 125%.

Test system: L1210 leukemia ip in BDF1 mice, survival T/C
Assay: NCI In Vivo Anticancer Drug Screen. Data for tumor model L1210 Leukemia (intraperitoneal) in B6D2F1 (BDF1) mice
Conditions: endpoint: mean survival time, higher = longer survival
In short: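 In this screen, tumor-bearing mice given compound are compared to those given vehicle, and their survival values are reported as a treated-to-control quotient.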

[1] = dose: 25.0 mg/kg/injection, schedule: Q01DX009 (ip), vehicle: Klucel (hydroxypropylcellulose) (HPC)
[2] = dose: 50.0 mg/kg/injection, schedule: Q01DX009 (ip), vehicle: Klucel (hydroxypropylcellulose) (HPC)
[3] = dose: 50.0 mg/kg/injection, schedule: Q01DX009 (ip), vehicle: water
[4] = dose: 50.0 mg/kg/injection, schedule: Q04DX003 (ip), vehicle: water
[5] = dose: 100.0 mg/kg/injection, schedule: Q01DX001 (ip), vehicle: water
[6] = dose: 100.0 mg/kg/injection, schedule: Q01DX009 (ip), vehicle: Klucel (hydroxypropylcellulose) (HPC)
[7] = dose: 100.0 mg/kg/injection, schedule: Q01DX009 (ip), vehicle: water
[8] = dose: 100.0 mg/kg/injection, schedule: Q04DX003 (ip), vehicle: Klucel (hydroxypropylcellulose) (HPC)
[9] = dose: 100.0 mg/kg/injection, schedule: Q04DX003 (ip), vehicle: water
[10] = dose: 200.0 mg/kg/injection, schedule: Q01DX001 (ip), vehicle: water
[11] = dose: 200.0 mg/kg/injection, schedule: Q04DX003 (ip), vehicle: Klucel (hydroxypropylcellulose) (HPC)
[12] = dose: 200.0 mg/kg/injection, schedule: Q04DX003 (ip), vehicle: water
[13] = dose: 400.0 mg/kg/injection, schedule: Q04DX003 (ip), vehicle: Klucel (hydroxypropylcellulose) (HPC)
[14] = dose: 100.0 mg/kg/injection, schedule: Q04DX002 (ip), vehicle: Klucel (hydroxypropylcellulose) (HPC)
[15] = dose: 200.0 mg/kg/injection, schedule: Q04DX002 (ip), vehicle: Klucel (hydroxypropylcellulose) (HPC)
[16] = dose: 12.5 mg/kg/injection, schedule: Q04DX003 (ip), vehicle: Klucel (hydroxypropylcellulose) (HPC)
[17] = dose: 25.0 mg/kg/injection, schedule: Q04DX003 (ip), vehicle: Klucel (hydroxypropylcellulose) (HPC)
[18] = dose: 75.0 mg/kg/injection, schedule: Q01DX001 (ip), vehicle: carboxymethylcellulose (CMC)
[19] = dose: 200.0 mg/kg/injection, schedule: Q01DX009 (ip), vehicle: saline with Tween-80
[20] = dose: 100.0 mg/kg/injection, schedule: Q04DX003 (ip), vehicle: saline with Tween-80
[21] = dose: 200.0 mg/kg/injection, schedule: Q04DX003 (ip), vehicle: saline with Tween-80
[22] = dose: 400.0 mg/kg/injection, schedule: Q04DX003 (ip), vehicle: saline with Tween-80
[23] = dose: 400.0 mg/kg/injection, schedule: Q04DX002 (ip), vehicle: Klucel (hydroxypropylcellulose) (HPC)

Measured: T/C

CCN(CC)/N=N/c1nc[nH]c1C(N)=O
inactive: dose: 12.5 mg/kg/injection, schedule: Q01DX009 (ip), vehicle: water 100 % of control | [1] 117 % of control | dose: 25.0 mg/kg/injection, schedule: Q01DX009 (ip), vehicle: water 101 % of control | dose: 50.0 mg/kg/injection, schedule: Q01DX001 (ip), vehicle: water 102 % of control | [2] 111 % of control | [3] 98 % of control and 104 % of control | [4] 101 % of control | dose: 100.0 mg/kg/injection, schedule: Q01DX001 (ip), vehicle: Klucel (hydroxypropylcellulose) (HPC) 104 % of control | [5] 103 % of control | [6] 114 % of control | [7] 105 % of control and 86 % of control | [8] 102 % of control | [9] 102 % of control | dose: 200.0 mg/kg/injection, schedule: Q01DX001 (ip), vehicle: Klucel (hydroxypropylcellulose) (HPC) 101 % of control | [10] 100 % of control | [11] 108 % of control | [12] 110 % of control | dose: 400.0 mg/kg/injection, schedule: Q01DX001 (ip), vehicle: Klucel (hydroxypropylcellulose) (HPC) 113 % of control | dose: 400.0 mg/kg/injection, schedule: Q01DX001 (ip), vehicle: water 113 % of control | [13] 119 % of control | dose: 400.0 mg/kg/injection, schedule: Q04DX003 (ip), vehicle: water 111 % of control

O=C(O)c1cccc2c1C(=O)c1c(O)cccc1C2=O
inactive: dose: 50.0 mg/kg/injection, schedule: Q04DX002 (ip), vehicle: Klucel (hydroxypropylcellulose) (HPC) 105 % of control | [14] 96 % of control | [15] 92 % of control

C=CCn1c2ccccc2c2cc3cnccc3c(C)c21
inactive: dose: 6.25 mg/kg/injection, schedule: Q04DX003 (ip), vehicle: Klucel (hydroxypropylcellulose) (HPC) 100 % of control | [16] 97 % of control | [17] 100 % of control | [8] 102 % of control | [11] 97 % of control | [13] 105 % of control

Nc1ccc2c(ccc3ccc4ccccc4c32)c1
inactive: [18] 97 % of control

CCCCC(=O)N/N=C/c1ccccc1OCC
inactive: dose: 100.0 mg/kg/injection, schedule: Q01DX001 (ip), vehicle: saline 102 % of control | dose: 200.0 mg/kg/injection, schedule: Q01DX001 (ip), vehicle: saline 107 % of control | dose: 400.0 mg/kg/injection, schedule: Q01DX001 (ip), vehicle: saline 93 % of control

Cc1cc(Cl)c(Cl)cc1NC(=O)/C=C\c1ccccc1
inactive: [6] 114 % of control | [8] 91 % of control | dose: 200.0 mg/kg/injection, schedule: Q01DX009 (ip), vehicle: Klucel (hydroxypropylcellulose) (HPC) 108 % of control | [11] 94 % of control | dose: 400.0 mg/kg/injection, schedule: Q01DX009 (ip), vehicle: Klucel (hydroxypropylcellulose) (HPC) 102 % of control | [13] 97 % of control

Cc1cncc2c(=O)n(-c3ccccc3)n(C)c12
inactive: [2] 93 % of control | [6] 96 % of control

CCOC(=O)CC1NCCC2C1CCC(OC)C2OC (centres undefined)
inactive: dose: 50.0 mg/kg/injection, schedule: Q01DX009 (ip), vehicle: saline with Tween-80 106 % of control | [8] 98 % of control | [19] 95 % of control | [11] 104 % of control

Nc1ccc(S(=O)(=O)Nc2ccc(N(CCCl)CCCl)cc2)cc1
inactive: dose: 100.0 mg/kg/injection, schedule: Q01DX009 (ip), vehicle: saline with Tween-80 108 % of control | [20] 105 % of control | [19] 113 % of control | [21] 103 % of control | dose: 400.0 mg/kg/injection, schedule: Q01DX009 (ip), vehicle: saline with Tween-80 111 % of control | [22] 102 % of control

CC(C)CN=C(N)N=C(N)N
inactive: [3] 95 % of control | [4] 102 % of control | [5] 96 % of control | [7] 97 % of control | [9] 104 % of control | [10] 103 % of control | [12] 107 % of control

N/C(=N\N=C\c1ccccn1)c1ccccn1
inactive: dose: 10.0 mg/kg/injection, schedule: Q01DX001 (ip), vehicle: water 93 % of control

COc1ccc([P+](Cc2ccccc2)(c2ccccc2)c2ccc3ccccc3c2)cc1 (centres undefined)
inactive: [18] 91 % of control | dose: 150.0 mg/kg/injection, schedule: Q01DX001 (ip), vehicle: carboxymethylcellulose (CMC) 96 % of control

COC(=O)/C=C\C(=O)OC
inactive: [8] 95 % of control | [11] 100 % of control | [13] 100 % of control

Cc1ccc(S(=O)(=O)OC2C(C)C3CS(=O)(=O)C32)cc1 (centres undefined)
inactive: dose: 100.0 mg/kg/injection, schedule: Q04DX002 (ip), vehicle: DMSO 119 % of control | dose: 200.0 mg/kg/injection, schedule: Q04DX002 (ip), vehicle: DMSO 105 % of control | dose: 400.0 mg/kg/injection, schedule: Q04DX002 (ip), vehicle: DMSO 102 % of control

COc1c(NC(=O)c2c(Br)c(Br)c(Br)c(Br)c2C(=O)O)cccc1[N+](=O)[O-]
inactive: [14] 94 % of control | [15] 102 % of control | [23] 118 % of control

O=C(O)COc1ccc(F)cn1
inactive: [14] 101 % of control | [15] 93 % of control | [23] 114 % of control

O=C(CSc1cc(Cl)c(Cl)cc1Cl)Nc1cccc(Cl)c1
inactive: dose: 100.0 mg/kg/injection, schedule: Q01DX001 (ip), vehicle: saline with Tween-80 95 % of control | dose: 200.0 mg/kg/injection, schedule: Q01DX001 (ip), vehicle: saline with Tween-80 98 % of control | dose: 400.0 mg/kg/injection, schedule: Q01DX001 (ip), vehicle: saline with Tween-80 90 % of control

CCCCCCCCC(=O)N1CCOCC1
inactive: dose: 4.68 mg/kg/injection, schedule: Q01DX009 (ip), vehicle: saline 97 % of control | dose: 9.37 mg/kg/injection, schedule: Q01DX009 (ip), vehicle: saline 97 % of control | [16] 99 % of control | dose: 18.75 mg/kg/injection, schedule: Q01DX009 (ip), vehicle: saline 97 % of control | [1] 104 % of control | [17] 103 % of control and 104 % of control | dose: 37.5 mg/kg/injection, schedule: Q01DX009 (ip), vehicle: saline 95 % of control | [2] 96 % of control | dose: 50.0 mg/kg/injection, schedule: Q04DX003 (ip), vehicle: Klucel (hydroxypropylcellulose) (HPC) 101 % of control | [8] 92 % of control

O=C(CCCl)Nc1cccc2c1C(=O)c1c(c(O)c3ccccc3c1O)C2=O
inactive: [20] 90 % of control | [21] 92 % of control | [22] 91 % of control

CSc1ncnc2c1nnn2C1OC(COC(=O)c2ccccc2)C(OC(=O)c2ccccc2)C1OC(=O)c1ccccc1 (centres undefined)
inactive: dose: 50.0 mg/kg/injection, schedule: Q01DX009 (ip), vehicle: gum acacia 93 % of control | dose: 100.0 mg/kg/injection, schedule: Q01DX001 (ip), vehicle: gum acacia 92 % of control | dose: 100.0 mg/kg/injection, schedule: Q01DX009 (ip), vehicle: gum acacia 89 % of control | dose: 200.0 mg/kg/injection, schedule: Q01DX001 (ip), vehicle: gum acacia 87 % of control
